Entries after “also recorded” stand apart in the source; their conditions may differ.
Test system: subchondral bone plate
Assay: Subchondral bone plate analysis in DMM mice
Assay type: in vivo, mouse
Details: after DMM surgery
From the text: Dissected knee joints underwent Micro-CT analysis using the Skyscan 1172 in vivo μCT scanner (Bruker micro-CT, Kontich, Belgium) at 55 kV and 181 μA, with a resolution of 10 μm. The raw data was then translated into two-dimensional cross-sectional gray scale image slices using NRecon (Bruker microCT, Kontich, Belgium). Structural parameters were then acquired from the two-dimensional images using a CT Analyzer (CT-AN, v1.10.9.0, Bruker microCT, Kontich, Belgium), including bone volume fraction (BV, mm3). The total knee osteophyte volume from the end of the distal femur to the end of the proximal tibia was compared between knees that underwent sham surgery, DMM surgery treated with PBS, DMM surgery treated with BMP-KI, or DMM surgery treated with ALK1-Fc. Average osteophyte volume was analyzed with Prism 9 Software (GraphPad) using two-way ANOVA and Tukey's multiple comparisons test post-hoc. MicroCT and data analysis was performed by an experienced investigator blinded to genotype/treatment. For each experimental group, five joint sections per animal were analyzed from the medial compartment. […] All quantifications were conducted in Fiji is Just ImageJ (FIJI, version 2.9.0). Quantified subchondral bone thickness was analyzed with Prism 9 Software (GraphPad) using two-way ANOVA and Tukey's multiple comparisons test post-hoc.

COc1cc(-c2cc(-c3ccc(N4CCNCC4)cc3)cnc2C)cc(OC)c1OC [LDN-214117]
total volume of the subchondral plates (week 8, microCT): no significant impact | thickness (thickening) of the subchondral bone plate (week 8, listed as BMP-KI): no significant impact; also recorded: no observed effect

Reference: US20260234217A1, “USE OF BMP RECEPTOR ALK1 INHIBITORS IN OSTEOARTHRITIS THERAPIES” (The Regents of the University of California, priority 2023, published 2026)
